According to patent US8680159B2, “Bradykinin 1 receptor modulating compounds” (Gruenenthal GmbH, priority 2010, dated 2014):

How the values were obtained:
[1] = target: T1, B1R receptor of the rat (CHO K1 cells stably transfected with the B1R gene of the rat) (Rattus norvegicus, UniProt P97583); assay: Functional study on the bradykinin receptor 1 (B1R), Ca2+ fluorescence (Fluo-4) FLIPR/Novostar assay, rB1R cells; format: cell-based; details: CHO-K1, 10 μM, read-out: % inhibition (rat B1R) at 10 μM
T1 construct: expressed in transfected cells; host or cells: CHO K1 cells (Chinese hamster ovary), stably transfected
T1 sequence (P97583 1-337): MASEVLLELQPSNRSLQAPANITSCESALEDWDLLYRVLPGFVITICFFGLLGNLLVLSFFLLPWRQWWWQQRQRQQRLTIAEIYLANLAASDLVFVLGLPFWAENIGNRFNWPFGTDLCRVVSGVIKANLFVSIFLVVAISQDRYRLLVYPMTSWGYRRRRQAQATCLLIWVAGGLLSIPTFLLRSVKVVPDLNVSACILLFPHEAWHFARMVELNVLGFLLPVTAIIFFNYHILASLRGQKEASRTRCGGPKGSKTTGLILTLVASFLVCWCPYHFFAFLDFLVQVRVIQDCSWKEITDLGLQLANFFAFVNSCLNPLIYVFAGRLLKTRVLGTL
In short: (§1)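 Stably transfected CHO K1 cells carrying human or rat B1R were Fluo-4 loaded and Ca2+ fluorescence read by FLIPR or Novostar. Compounds were added first at 10 μM for % activation, then the EC80 agonist was applied after 6-20 min (human: Lys-Des-Arg9-bradykinin; rat: Des-Arg9-bradykinin). % inhibition is relative to maximum achievable inhibition, and IC50 comes from concentration series.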

[2] = target: T2, human B1R receptor (CHO K1 cells stably transfected with the human B1R gene) (Homo sapiens, UniProt P46663); assay: Functional study on the bradykinin receptor 1 (B1R), Ca2+ fluorescence (Fluo-4) FLIPR/Novostar assay, hB1R cells; format: cell-based; details: CHO-K1, read-out: % inhibition (human B1R) at 10 μM
T2 construct: expressed in transfected cells; host or cells: CHO K1 cells (Chinese hamster ovary), stably transfected
T2 sequence (P46663 1-353): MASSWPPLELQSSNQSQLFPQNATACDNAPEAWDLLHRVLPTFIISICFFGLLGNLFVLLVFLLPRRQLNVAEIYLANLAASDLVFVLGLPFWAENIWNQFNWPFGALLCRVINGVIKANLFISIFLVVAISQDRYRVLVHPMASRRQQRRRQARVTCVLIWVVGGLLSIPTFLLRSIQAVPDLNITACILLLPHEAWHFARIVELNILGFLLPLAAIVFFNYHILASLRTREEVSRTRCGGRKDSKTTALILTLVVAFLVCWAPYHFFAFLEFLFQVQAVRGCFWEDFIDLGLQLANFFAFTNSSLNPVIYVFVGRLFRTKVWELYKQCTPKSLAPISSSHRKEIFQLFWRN
In short: as §1

Compound	inhibition at 10 µM [1]	inhibition at 10 µM [2]
CC(C)CC(=O)N[C@@H]1CCc2ccc(C(=O)N(C)C3CCN(c4ccncc4)CC3)cc21 [Example H-28, (3R)-N-Methyl-3-(3-methyl-butanoylamino)-N-(1-pyridin-4-yl-piperidin-4-yl)-2,3-dihydro-1H-indene-5-carboxylic acid amide]	100%	100%
CN(C(=O)c1ccc2c(c1)[C@H](NC(=O)c1ccccc1F)CC2)C1CCN(c2ccncc2)CC1 [Example H-29, (3R)-3-[(2-Fluoro-benzoyl)amino]-N-methyl-N-(1-pyridin-4-yl-piperidin-4-yl)-2,3-dihydro-1H-indene-5-carboxylic acid amide]	100%	99%
CN(C(=O)c1ccc2c(c1)[C@H](NC(=O)c1ccccc1C(F)(F)F)CC2)C1CCN(c2ccncc2)CC1 [Example H-30, (3R)-N-Methyl-N-(1-pyridin-4-yl-piperidin-4-yl)-3-[[2-(trifluoromethyl)-benzoyl]amino]-2,3-dihydro-1H-indene-5-carboxylic acid amide]	99%	100%
CN(C(=O)c1ccc2c(c1)[C@H](NC(=O)c1cncnc1)CC2)C1CCN(c2ccncc2)CC1 [Example H-31, N-[(1R)-6-[Methyl-(1-pyridin-4-yl-piperidin-4yl)carbamoyl]-2,3-dihydro-1H-inden-1-yl]-pyrimidine-5-carboxylic acid amide]	70%	100%
CN(C(=O)c1ccc2c(c1)[C@H](NC(=O)c1c(F)cccc1Cl)CC2)C1CCN(c2ccncc2)CC1 [Example H-32, (3R)-3-[(2-Chloro-6-fluoro-benzoyl)amino]-N-methyl-N-(1-pyridin-4-yl-piperidin-4-yl)-2,3-dihydro-1H-indene-5-carboxylic acid amide]	101%	100%
CN(C(=O)c1ccc2c(c1)[C@H](NS(=O)(=O)c1ccccc1Cl)CC2)C1CCN(c2ccncc2)CC1 [Example H-33, (3R)-3-[[(2-Chlorophenyl)sulfonyl]amino]-N-methyl-N-(1-pyridin-4-yl-piperidin-4-yl)-2,3-dihydro-1H-indene-5-carboxylic acid amide]	101%	100%
CC(C)CC(=O)N[C@@H]1CCc2cc(C(=O)N(C)C3CCN(c4ccncc4)CC3)ccc21 [Example H-34, (1R)-N-Methyl-1-(3-methyl-butanoylamino)-N-(1-pyridin-4-yl-piperidin-4-yl)-2,3-dihydro-1H-indene-5-carboxylic acid amide]	7%	64%
CN(C(=O)c1ccc2c(c1)[C@H](NC(=O)Cc1ccccc1Cl)CC2)C1CCN(c2ccncc2)CC1 [Example H-35, (3R)-3-[[2-(2-Chlorophenyl)-acetyl]amino]-N-methyl-N-(1-pyridin-4-yl-piperidin-4-yl)-2,3-dihydro-1H-indene-5-carboxylic acid amide]	105%	100%
CN(C(=O)c1ccc2c(c1)[C@H](NC(=O)c1cnccc1C(F)(F)F)CC2)C1CCN(c2ccncc2)CC1 [Example H-36, N-[(1R)-6-[Methyl-(1-pyridin-4-yl-piperidin-4-yl)-carbamoyl]-2,3-dihydro-1H-inden-1-yl]-4-(trifluoromethyl)-pyridine-3-carboxylic acid amide]	105%	100%
CN(C(=O)c1ccc2c(c1)[C@H](NC(=O)c1cccnc1C(F)(F)F)CC2)C1CCN(c2ccncc2)CC1 [Example H-37, N-[(1R)-6-[Methyl-(1-pyridin-4-yl-piperidin-4-yl)-carbamoyl]-2,3-dihydro-1H-inden-1-yl]-2-(trifluoromethyl)-pyridine-3-carboxylic acid amide]	107%	100%
O=C(N[C@@H]1CCc2ccc(C(=O)N(C3CC3)C3CCN(c4ccncc4)CC3)cc21)c1ccccc1Cl [Example H-38, (3R)-3-[(2-Chloro-benzoyl)amino]-N-cyclopropyl-N-(1-pyridin-4-yl-piperidin-4-yl)-2,3-dihydro-1H-indene-5-carboxylic acid amide]	103%	100%
CN(C(=O)c1ccc2c(c1)[C@H](NC(=O)c1ccccc1Cl)CC2)C1CCN(c2ccncc2)C1 (stereo partly drawn) [Example H-39, (3R)-3-[(2-Chloro-benzoyl)amino]-N-methyl-N-(1-pyridin-4-yl-pyrrolidin-3-yl)-2,3-dihydro-1H-indene-5-carboxylic acid amide]	100%	100%
CN1CCC(N2CCC(N(C)C(=O)c3ccc4c(c3)[C@H](NC(=O)c3ccccc3Cl)CC4)CC2)CC1 [Example H-40, (3R)-3-[(2-Chloro-benzoyl)amino]-N-methyl-N-[1-(1-methyl-piperidin-4-yl)-piperidin-4-yl]-2,3-dihydro-1H-indene-5-carboxylic acid amide]	73%	52%
COc1ncccc1C(=O)N[C@@H]1CCc2ccc(C(=O)N(C)C3CCN(c4ccncc4)CC3)cc21 [Example H-41, 2-Methoxy-N-[(1R)-6-[methyl-(1-pyridin-yl-piperidin-4yl)-carbamoyl]-2,3-dihydro-1H-inden-1-yl]-pyridine-3-carboxylic acid amide]	98%	100%
CN1CCC(N2CCC(NC(=O)c3ccc4c(c3)CC[C@H]4N3Cc4cccc(Cl)c4C3=O)CC2)CC1 [Example H-42, (1R)-1-(4-Chloro-3-oxo-1,2-dihydro-isoindol-2-yl)-N-[1-(1-methyl-piperidin-4-yl)-piperidin-4-yl]-2,3-dihydro-1H-indene-5-carboxylic acid amide]	18%	65%
CN(C(=O)c1ccc2c(c1)CC[C@H]2N1Cc2cccc(Cl)c2C1=O)C1CCN(CCc2ccncc2)CC1 [Example H-43, (1R)-1-(4-Chloro-3-oxo-1,2-dihydro-isoindol-2-yl)-N-methyl-N-[1-(2-pyridin-4-yl-ethyl)-piperidin-4-yl]-2,3-dihydro-1H-Indene-5-carboxylic acid amide]	51%	22%
CN(C(=O)c1ccc2c(c1)OCC[C@H]2NC(=O)c1ccccc1Cl)C1CCN(c2ccncc2)CC1 [Example H-44, (4R)-4-[(2-Chloro-benzoyl)amino]-N-methyl-N-(1-pyridin-4-yl-piperidin-4-yl)-3,4-dihydro-2H-chromene-7-carboxylic acid amide]	94%	94%
CN(C(=O)c1ccc2c(c1)OCC[C@H]2N1Cc2cccc(Cl)c2C1=O)C1CCN(c2ccncc2)CC1 [Example H-45, (4R)-4-(4-Chloro-3-oxo-1,2-dihydro-isoindol-2-yl)-N-methyl-N-(1-pyridin-4-yl-piperidin-4-yl)-3,4-dihydro-2H-chromene-7-carboxylic acid amide]	56%	98%
CN(C(=O)c1ccc2c(c1)[C@H](NC(=O)C1(c3ccccc3F)CC1)CC2)C1CCN(c2ccncc2)CC1 [Example H-46, (3R)-3-[[1-(2-Fluorophenyl)-cyclopropanecarbonyl]amino]-N-methyl-N-(1-pyridin-4-yl-piperidin-4-yl)-2,3-dihydro-1H-indene-5-carboxylic acid amide]	103%	100%
